Read-outs that look alike come from different tables or passages of the source.
Assays:
[1] = test system: RPChiPS771-derived enterocyte-like cells; assay: Real-time PCR of marker genes in hiPSC-derived enterocyte-like cells with or without VD3; assay type: cell-based, human
Description: We then used M3-2 for maturation and evaluated the time-dependent expression of marker genes (Figure 4D). […] The expression levels of UDP glucuronosyltransferase 1-1 (UGT1A1) and various isoforms of P450 metabolizing enzymes (CYP2B6, CYP3A4, and CYP3A7) increased in the presence of VD3 compared with the controls without VD3. The expression levels of uptake transporter, SLC15A1, and efflux transporters, ABCB1 and ABCG2, were not affected by VD3.
Cells were fixed in 4% paraformaldehyde (Nacalai Tesque) in PBS, permeabilized with 0.1% Triton X-100 (Nacalai Tesque). The following antibodies were used: anti-CDX2 (1:100, BioGenex, San Ramon, CA, MU392A-UC), anti-VILLIN (1:100, BD Transduction Laboratories, San Diego, 610359), Alexa 568-conjugated, and Alexa 488-conjugated antibodies (1:1000, ThermoFisher).
RNA was extracted from iPS cells using the RNeasy micro-kit or QIAzol (Qiagen, Hilden, Germany) and then treated with DNase (Qiagen). For reverse transcription reactions, 2.5 µg RNA was reverse-transcribed using PrimeScript™ RT Master Mix (Takara Bio). For real-time PCR analysis, the mRNA expression was quantified with either TaqMan Primers and Probe or using SYBR Green on a StepOne Plus (Applied Biosystems, Foster City, CA, USA). β-ACTIN and GAPDH were used as internal controls. Target mRNA levels were expressed as fold-change against human adult small intestine (ASI; ASI=1). Primer details are listed in Supplemental Table S2.
Membrane integrities of human iPSCs derived intestine cells and Caco-2 cells cultured on CVM were measured after the medium change, using a Millicell ERS-2 (Epithelial Volt-Ohm Meter, Millipore).
Transcellular transport assays and measurement of CYP3A metabolite
In Figure 2 and Figure S1, for assessing the transporter activity of P-gp, time-dependent directional (B-to-

[2] = Permeability test (Papp) across hiPSC-derived enterocyte-like cell monolayer; assay type: in vitro ADME; conditions: human, M3-2 medium, 37°C 2 h, n = 4
Experimental: The unlabeled compounds were analyzed by LC-MS/MS. […]
Permeability measurements
5 was determined as follows: the culture medium for hiPS-derived enterocyte-like cells was replaced with […]
started by replacing the FBS-containing HBSS buffer with substrate +/- inhibitor and incubated at 37°C for 2 h. The unlabeled compounds were analyzed by LC-MS/MS. The LC-MS/MS system consisted of a Waters ACQUITY UPLC (Waters Corporation, Milford, MA, USA) and a Waters Quattro Ultima mass spectrometer (Waters Corporation). The multiple reaction monitoring modes were used to monitor ions.
The detailed conditions for the analyses of the compounds are shown in Supplemental Table S1. The apparent membrane permeability coefficient (Papp) was calculated as follows. Papp ൌ ௗொௗ௧ ൈ ଵ஺஼బ Where dQ/dt is the amount of the compound permeated per unit of time, A is the surface area of insert membrane (0.33 cm2), and C0 is the initial compound concentration in the donor chamber. Differentiated cells showing TEER >30 Ω・cm2 were used. […]
100ൈቀ1െexp൫െα ൈP௔௣௣ ൯ቁ. Where α is the scaling factor. The fitting curve was calculated by nonlinear regression using Phoenix WinNonlin (Ver. 8.1, Certara, L.P.).

[3] = fraction of oral dose absorbed in humans; ref Amidon et al., 1988; Sjöberg et al., 2013; Skolnik et al., 2010; Sugano et al., 2002; Takenaka et al., 2016; Tavelin et al., 2003; Xiao et al., 2019; cited from earlier work
P-gp [4] = target: T1, P-gp (Homo sapiens, UniProt P08183); conditions: digoxin 1.27 nM, absence of inhibitor
T1 sequence (P08183 whole entry): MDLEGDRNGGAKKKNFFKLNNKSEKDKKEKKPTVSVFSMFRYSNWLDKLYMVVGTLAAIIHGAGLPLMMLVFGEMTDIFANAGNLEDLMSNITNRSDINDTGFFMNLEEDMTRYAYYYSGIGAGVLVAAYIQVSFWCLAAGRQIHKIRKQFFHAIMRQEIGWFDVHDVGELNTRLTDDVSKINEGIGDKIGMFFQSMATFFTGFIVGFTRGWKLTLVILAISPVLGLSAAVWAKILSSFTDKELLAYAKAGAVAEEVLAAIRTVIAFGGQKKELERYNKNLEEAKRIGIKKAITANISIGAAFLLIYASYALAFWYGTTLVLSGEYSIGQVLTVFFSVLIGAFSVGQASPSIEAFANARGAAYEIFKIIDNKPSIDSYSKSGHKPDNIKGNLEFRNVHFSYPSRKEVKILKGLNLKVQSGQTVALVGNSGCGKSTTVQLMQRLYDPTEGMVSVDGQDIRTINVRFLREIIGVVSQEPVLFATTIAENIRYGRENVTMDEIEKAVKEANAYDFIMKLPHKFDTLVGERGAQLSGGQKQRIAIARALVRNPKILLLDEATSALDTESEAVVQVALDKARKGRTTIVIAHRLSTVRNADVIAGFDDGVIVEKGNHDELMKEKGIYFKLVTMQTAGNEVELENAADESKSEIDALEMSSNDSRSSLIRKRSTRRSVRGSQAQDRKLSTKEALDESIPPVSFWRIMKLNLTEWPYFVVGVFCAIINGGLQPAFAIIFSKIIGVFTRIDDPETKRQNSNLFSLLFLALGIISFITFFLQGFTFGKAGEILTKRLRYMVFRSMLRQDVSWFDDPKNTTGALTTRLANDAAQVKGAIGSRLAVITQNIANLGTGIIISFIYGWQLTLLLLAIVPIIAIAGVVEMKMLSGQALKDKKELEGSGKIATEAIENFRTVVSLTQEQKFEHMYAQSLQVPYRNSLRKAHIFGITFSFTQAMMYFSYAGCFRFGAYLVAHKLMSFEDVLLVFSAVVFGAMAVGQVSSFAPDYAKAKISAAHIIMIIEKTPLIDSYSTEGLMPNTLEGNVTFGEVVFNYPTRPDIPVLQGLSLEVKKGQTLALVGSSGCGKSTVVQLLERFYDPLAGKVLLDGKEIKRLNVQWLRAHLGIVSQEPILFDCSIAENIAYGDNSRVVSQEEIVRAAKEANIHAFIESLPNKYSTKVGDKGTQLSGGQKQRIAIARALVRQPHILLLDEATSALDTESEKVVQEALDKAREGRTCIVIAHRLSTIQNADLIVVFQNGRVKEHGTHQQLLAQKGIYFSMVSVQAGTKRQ

CYP3A4 = conditions: in vitro; ref Andrew Williams et al., 2002; cited from earlier work
Caco-2 cells = test system: Caco-2 cells; set-up: method as in Artursson, 1990; conditions: ref Artursson, 1990; cited from earlier work
P-gp [5] = test system: T2, P-gp; assay: Rhodamine 123 permeability assay by fluorescence detection; assay type: in vitro ADME, human; conditions: human, not told, day 25, M3-2 with VD3 for the last 48 h (condition #8), read-out: rhodamine 123 flux ratio ([B-to-A transport]/[A-to-B transport])
T2 construct: transport activities of efflux transporters, P-gp and BCRP, in the ChiPS18-derived enterocyte-like cells; endogenous in cells; host or cells: ChiPS18 human iPSC-derived enterocyte-like cells on CVM inserts
Description: (§1) Flux ratio = Papp, basolateral to apical/Papp, apical to basolateral

P-gp [6] = target: T1, P-gp; assay: as above; assay type: in vitro ADME; set-up: transport activities of efflux transporters, P-gp and BCRP, in the ChiPS18-derived enterocyte-like cells; endogenous in cells; host or cells: ChiPS18 human iPSC-derived enterocyte-like cells on CVM inserts; conditions: 10 μM, day 25, absence of Dex (condition #6, 7) or without Dex and DMSO (condition #5)
Description: as §1

[7] = D30 of differentiation, read-out: RPChiPS771 d30 Papp Mean ± SD
[8] = day 23 of differentiation, read-out: RPChiPS771 d23 Papp Mean ± SD

C=C1/C(=C\C=C2/CCC[C@]3(C)[C@@H]([C@H](C)CCCC(C)(C)O)CC[C@@H]23)C[C@@H](O)C[C@@H]1O [VD3, 1α,25-dihydroxyvitamin D3]
expression level of ALPI ([1]; presence of VD3, M3-2): upregulated | expression levels of UGT1A1, CYP2B6, CYP3A4 and CYP3A7 ([1]; presence of VD3 compared with controls without VD3, M3-2): increased | expression levels of SLC15A1, ABCB1 and ABCG2 ([1]; presence of VD3 vs without, M3-2): not affected

Nc1nc2c(ncn2COCCO)c(=O)[nH]1 [acyclovir]
Papp at 2 h [2, 7]: 10 ± 6.34 ×10⁻⁶ cm/s | Papp at 2 h [2, 8]: 3.62 ± 0.73 ×10⁻⁶ cm/s

Cc1cc(=O)n(-c2ccccc2)n1C [antipyrine]
Papp at 2 h [2, 7]: 41.9 ± 2.2 ×10⁻⁶ cm/s | Papp at 2 h [2, 8]: 48.4 ± 1.7 ×10⁻⁶ cm/s | Human Fa [3]: 97%

O=C(O)Cc1ccccc1Nc1c(Cl)cccc1Cl [diclofenac]
Papp at 2 h [2, 7]: 12 ± 1.2 ×10⁻⁶ cm/s | Papp at 2 h [2, 8]: 17.4 ± 0.6 ×10⁻⁶ cm/s

C[C@H]1O[C@@H](O[C@H]2[C@@H](O)C[C@H](O[C@H]3[C@@H](O)C[C@H](O[C@H]4CC[C@@]5(C)[C@H](CC[C@@H]6[C@@H]5C[C@@H](O)[C@]5(C)[C@@H](C7=CC(=O)OC7)CC[C@]65O)C4)O[C@@H]3C)O[C@@H]2C)C[C@H](O)[C@@H]1O [digoxin]
directional transport (B-to-A vs A-to-B) (P-gp [4]): Basal-to-apical (B-to-A) transport exceeded apical-to-basal (A-to-B) transport | Papp at 2 h [2, 7]: 5.18 ± 0.7 ×10⁻⁶ cm/s | Papp at 2 h [2, 8]: 6.15 ± 0.94 ×10⁻⁶ cm/s

NC(N)=Nc1nc(CSCCC(N)=NS(N)(=O)=O)cs1 [famotidine]
Papp at 2 h [2, 7]: 7.42 ± 3.36 ×10⁻⁶ cm/s | Papp at 2 h [2, 8]: 5.05 ± 1.76 ×10⁻⁶ cm/s | Human Fa [3]: 38%

NS(=O)(=O)c1cc2c(cc1Cl)NCNS2(=O)=O [hydrochlorothiazide]
Papp at 2 h [2, 7]: 9.5 ± 4.92 ×10⁻⁶ cm/s | Papp at 2 h [2, 8]: 2.1 ± 1.12 ×10⁻⁶ cm/s

COCCc1ccc(OCC(O)CNC(C)C)cc1 (centres unmarked) [metoprolol]
Papp at 2 h [2, 7]: 25.1 ± 4.8 ×10⁻⁶ cm/s | Papp at 2 h [2, 8]: 22.6 ± 1.3 ×10⁻⁶ cm/s

Cc1ncc2n1-c1ccc(Cl)cc1C(c1ccccc1F)=NC2 [midazolam]
formation of 1′-OH midazolam by CYP3A4 compared to CYP3A7 (CYP3A4): > 600 fold

CC(C)(C)NCC(O)COc1cccc2c1CC(O)C(O)C2 (centres unmarked) [nadolol]
Papp at 2 h [2, 7]: 8.96 ± 9.29 ×10⁻⁶ cm/s | Papp at 2 h [2, 8]: 2.83 ± 1.5 ×10⁻⁶ cm/s | Human Fa [3]: 33%

CC(C)NCC(O)COc1cccc2ccccc12 (centres unmarked) [propranolol]
passive permeability (Caco-2 cells): 41.9 ×10⁻⁶ cm/s | Papp at 2 h [2, 7]: 29.3 ± 2.5 ×10⁻⁶ cm/s | Papp at 2 h [2, 8]: 26 ± 2.7 ×10⁻⁶ cm/s

CNC(=C[N+](=O)[O-])NCCSCc1ccc(CN(C)C)o1 [ranitidine]
Papp at 2 h [2, 7]: 8.3 ± 6.06 ×10⁻⁶ cm/s | Papp at 2 h [2, 8]: 3.94 ± 0.7 ×10⁻⁶ cm/s | Human Fa [3]: 50%

COC(=O)c1ccccc1-c1c2ccc(=N)cc-2oc2cc(N)ccc12 [rhodamine 123]
efflux ratio at 10 μM (P-gp [5]): < 2 | rhodamine 123 flux ratio ([B-to-A transport]/[A-to-B transport]) (P-gp [6]): low

O=C(O)c1cc(/N=N/c2ccc(S(=O)(=O)Nc3ccccn3)cc2)ccc1O [sulfasalazine]
Papp at 2 h [2, 7]: 2.65 ± 1.01 ×10⁻⁶ cm/s | Papp at 2 h [2, 8]: 1.02 ± 0.4 ×10⁻⁶ cm/s | Human Fa [3]: 13%

CCN1CCCC1CNC(=O)c1cc(S(N)(=O)=O)ccc1OC (centres unmarked) [sulpiride]
Papp at 2 h [2, 7]: 8.39 ± 4.96 ×10⁻⁶ cm/s | Papp at 2 h [2, 8]: 3.15 ± 1.18 ×10⁻⁶ cm/s

C[C@]12CC[C@H]3[C@@H](CCC4=CC(=O)CC[C@@]43C)[C@@H]1CC[C@@H]2O [testosterone]
Human Fa [3]: 100%

Reference: PMC7878837, “Generation of Human-Induced Pluripotent Stem Cell-Derived Functional Enterocyte-Like Cells for Pharmacokinetic Studies” (Stem Cell Reports, 2021)
